Tests used:
A2058 melanoma = assay: MTS cell viability assay, A2058 melanoma cell line; assay type: cell-based; conditions: 48 h; for Viability % CTL A2058 melanoma (10 μM): Table 4, 10 μM; for Viability (% CTL) at 10 μM A2058 melanoma: Table 2, 10 μM; for Viability % CTL A2058 melanoma: Table 1, screened at 10 μM
Protocol: (§1) MTS assays were performed for cell viability. To determine if novel pyridopyrazine derivatives have antitumor activities, compounds were screened at 10 μM final concentration with A2058 melanoma and DU145 prostate cancer cell lines. Compounds #16 and #17 were selected to determine IC50 values against lung cancer cell lines, including A549, DMS273, H69, H513, H2461, DMS114, H358 and H2596. In this assay, cells (5000/well) were seeded in 96-well plates, incubated overnight at 37° C. in 5% CO2, and exposed to 10 μM of compounds or in a dose-dependent manner for 48 h. After 48 h treatment with compounds, MTS dye (20 μL/well) was added to 96-well plates. Viable cell numbers were determined by tetrazolium conversion to its formazan dye. Absorbance was measured at 490 nm using an automated ELISA plate reader. Dimethyl sulfoxide (DMSO) was used as the vehicle control. Each experiment was conducted in triplicate. IC50 values were determined using CalcuSyn software (Biosoft).

DU145 prostate cancer = assay: MTS cell viability assay, DU145 prostate cancer cell line; assay type: cell-based; conditions: DU145 prostate, 48 h; for Viability % CTL DU145 prostate (10 μM ): Table 4; for Viability (% CTL) at 10 μM DU145 prostate: Table 2; for Viability % CTL DU145 prostate: Table 1, screened at 10 μM
Protocol: as §1

| Structure (SMILES) | Viability % CTL A2058 melanoma (A2058 melanoma) | Viability % CTL DU145 prostate (DU145 prostate cancer) | also measured |
| --- | --- | --- | --- |
| COc1cc(Nc2cnc3cc(NC(=O)Nc4cccc(C(F)(F)F)c4)c(C)nc3n2)cc(OC)c1OC [Compound 34, 1-(6-Methyl-3-((3,4,5-trimethoxyphenyl)amino)pyrido[2,3-b]pyrazin-7-yl)-3-(3-(trifluoromethyl)phenyl)urea] |  |  | Viability % CTL A2058 melanoma (10 μM) (A2058 melanoma): 116 % CTL; Viability % CTL DU145 prostate (10 μM ) (DU145 prostate cancer): 81 % CTL |
| CCN(CC)CCNCC(=O)Nc1cc2ncc(Nc3ccccc3)nc2nc1C [Compound 27E] |  |  | Viability (% CTL) at 10 μM A2058 melanoma (A2058 melanoma): 85 % CTL; Viability (% CTL) at 10 μM DU145 prostate (DU145 prostate cancer): 82 % CTL |
| Cc1nc2nc(Sc3ccccc3)cnc2cc1NC(=O)Nc1ccc(F)c(Cl)c1 [Compound 18B] | 83 % CTL | 124 % CTL |  |
| Cc1nc2nccnc2cc1NC(=O)Nc1ccccc1 [Compound 15A] | 73 % CTL | 104 % CTL |  |
| Cc1nc2nc(Nc3ccccc3)cnc2cc1NC(=O)c1ccc([N+](=O)[O-])cc1 [Compound 10, N-(6-Methyl-3-(phenylamino)pyrido[2,3-b]pyrazin-7-yl)-4-nitrobenzamide] |  |  | Viability (% CTL) at 10 μM A2058 melanoma (A2058 melanoma): 86 % CTL; Viability (% CTL) at 10 μM DU145 prostate (DU145 prostate cancer): 97 % CTL |
| Cc1nc2nc(Oc3ccccc3)cnc2cc1[N+](=O)[O-] [Compound 55C] | 91 % CTL | 95 % CTL |  |
| COc1cc(C(=O)Nc2cc3ncc(Nc4ccccc4)nc3nc2C)cc(OC)c1OC [Compound 11, 3,4,5-Trimethoxy-N-(6-methyl-3-(phenylamino)pyrido[2,3-b]pyrazin-7-yl)benzamide] |  |  | Viability (% CTL) at 10 μM A2058 melanoma (A2058 melanoma): 83 % CTL; Viability (% CTL) at 10 μM DU145 prostate (DU145 prostate cancer): 105 % CTL |
| Cc1nc2nc(Nc3ccccc3)cnc2cc1NC(=O)c1ccccc1 [Compound 8, N-(6-Methyl-3-(phenylamino)pyrido[2,3-b]pyrazin-7-yl)benzamide] |  |  | Viability (% CTL) at 10 μM A2058 melanoma (A2058 melanoma): 81 % CTL; Viability (% CTL) at 10 μM DU145 prostate (DU145 prostate cancer): 90 % CTL |
| Cc1nc2nc(Nc3ccccc3)cnc2cc1NC(=O)CN(C)C [Compound 24E] |  |  | Viability (% CTL) at 10 μM A2058 melanoma (A2058 melanoma): 84 % CTL; Viability (% CTL) at 10 μM DU145 prostate (DU145 prostate cancer): 102 % CTL |
| Cc1nc2nc(Nc3ccccc3)cnc2cc1NC(=O)CNc1ccccc1 [Compound 26E] |  |  | Viability (% CTL) at 10 μM A2058 melanoma (A2058 melanoma): 93 % CTL; Viability (% CTL) at 10 μM DU145 prostate (DU145 prostate cancer): 85 % CTL |
| CC(=O)Nc1ccc(Nc2cnc3cc(NC(=O)Nc4cccc(C(F)(F)F)c4)c(C)nc3n2)cc1 [Compound 33, N-(4-((6-Methyl-7-(3-(3-(trifluoromethyl)phenyl)ureido)pyrido[2,3-b]pyrazin-3-yl)amino)phenyl)acetamide] |  |  | Viability % CTL A2058 melanoma (10 μM) (A2058 melanoma): 109 % CTL; Viability % CTL DU145 prostate (10 μM ) (DU145 prostate cancer): 55 % CTL |
| Cc1nc2nc(Oc3ccccc3)cnc2cc1N [Compound 56D] | 81 % CTL | 108 % CTL |  |
| Cc1nc2nccnc2cc1NC(=O)Nc1ccc(F)c(Cl)c1 [Compound 16A] | 96 % CTL | 99 % CTL |  |
| Cc1nc2nc(Nc3ccc(C(=O)O)cc3)cnc2cc1NC(=O)Nc1cccc(C(F)(F)F)c1 [Compound 36, 4-((6-Methyl-7-(3-(3-(trifluoromethyl)phenyl)ureido)pyrido[2,3-b]pyrazin-3-yl)amino)benzoic acid] |  |  | Viability % CTL A2058 melanoma (10 μM) (A2058 melanoma): 113 % CTL; Viability % CTL DU145 prostate (10 μM ) (DU145 prostate cancer): 77 % CTL |
| Cc1nc2nc(Nc3ccccc3)cnc2cc1NC(=O)c1cccc(C(F)(F)F)c1 [Compound 12, N-(6-Methyl-3-(phenylamino)pyrido[2,3-b]pyrazin-7-yl)-3-(trifluoromethyl)benzamide] | 69 % CTL | 93 % CTL |  |
| Cc1nc2nccnc2cc1NC(=O)CN(C)C [Compound 14A] | 106 % CTL | 101 % CTL |  |
| CC(=O)Nc1ccc(Nc2cnc3cc(NC(=O)Nc4ccc(F)c(Cl)c4)c(C)nc3n2)cc1 [Compound 32, N-(4-((7-(3-(3-Chloro-4-fluorophenyl)ureido)-6-methylpyrido[2,3-b]pyrazin-3-yl)amino)phenyl)acetamide] |  |  | Viability % CTL A2058 melanoma (10 μM) (A2058 melanoma): 65 % CTL; Viability % CTL DU145 prostate (10 μM ) (DU145 prostate cancer): 76 % CTL |

| Structure (SMILES) | Viability % CTL A2058 melanoma (A2058 melanoma) | Viability % CTL DU145 prostate (DU145 prostate cancer) | also measured |
| --- | --- | --- | --- |
| Cc1nc2nc(Sc3ccccc3)cnc2cc1NC(=O)c1ccccc1C(F)(F)F [Compound 16B] | 84 % CTL | 120 % CTL |  |
| Cc1nc2nc(Sc3ccccc3)cnc2cc1NC(=O)c1cccc(C(F)(F)F)c1 [Compound 15B] | 61 % CTL | 113 % CTL |  |
| Cc1ccc(S(=O)(=O)Nc2cc3nccnc3nc2C)cc1 [Compound 19A] | 59 % CTL | 122 % CTL |  |
| COc1cc(C(=O)Nc2cc3nccnc3nc2C)cc(OC)c1OC [Compound 07A] | 82 % CTL | 122 % CTL |  |
| CC(=O)Nc1cccc(Nc2cnc3cc(NC(=O)Nc4cccc(C(F)(F)F)c4)c(C)nc3n2)c1 [Compound 31, N-(3-((6-Methyl-7-(3-(3-(trifluoromethyl)phenyl)ureido)pyrido[2,3-b]pyrazin-3-yl)amino)phenyl)acetamide] |  |  | Viability % CTL A2058 melanoma (10 μM) (A2058 melanoma): 119 % CTL; Viability % CTL DU145 prostate (10 μM ) (DU145 prostate cancer): 62 % CTL |
| Cc1ccc(C(=O)Nc2cc3nccnc3nc2C)cc1 [Compound 08A] | 80 % CTL | 96 % CTL |  |
| Cc1nc2nc(Sc3ccccc3)cnc2cc1NC(=O)Nc1cccc(C(F)(F)F)c1 [Compound 17B] | 56 % CTL | 101 % CTL |  |
| Cc1nc2nc(Nc3ccccc3)cnc2cc1NC(=O)CN1CCN(C)CC1 [Compound 25E] |  |  | Viability (% CTL) at 10 μM A2058 melanoma (A2058 melanoma): 85 % CTL; Viability (% CTL) at 10 μM DU145 prostate (DU145 prostate cancer): 83 % CTL |
| Cc1nc2nccnc2cc1NC(=O)c1cccc(C(F)(F)F)c1 [Compound 09A] | 74 % CTL | 103 % CTL |  |
| Cc1nc2nc(Nc3ccccc3)cnc2cc1NC(=O)Nc1ccc(Cl)cc1Cl [Compound 19, 1-(2,4-Dichlorophenyl)-3-(6-methyl-3-(phenylamino)pyrido[2,3-b]pyrazin-7-yl)urea] |  |  | Viability % CTL A2058 melanoma (10 μM) (A2058 melanoma): 60 % CTL; Viability % CTL DU145 prostate (10 μM ) (DU145 prostate cancer): 50 % CTL |
| Cc1nc2nccnc2cc1NC(=O)c1ccc(N)cc1 [Compound 12A] | 84 % CTL | 99 % CTL |  |
| Cc1ccc(C(=O)Nc2cc3ncc(Nc4ccccc4)nc3nc2C)cc1 [Compound 9, 4-Methyl-N-(6-methyl-3-(phenylamino)pyrido[2,3-b]pyrazin-7-yl)benzamide] |  |  | Viability (% CTL) at 10 μM A2058 melanoma (A2058 melanoma): 66 % CTL; Viability (% CTL) at 10 μM DU145 prostate (DU145 prostate cancer): 82 % CTL |
| Cc1nc2nccnc2cc1NC(=S)NCc1ccccc1 [Compound 18A] | 74 % CTL | 89 % CTL |  |
| Cc1nc2nccnc2cc1NC(=O)c1ccccc1 [Compound 06A] | 85 % CTL | 94 % CTL |  |
| Cc1nc2nc(Oc3ccccc3)cnc2cc1NC(=O)Nc1ccccc1 [Compound 57C] | 94 % CTL | 126 % CTL |  |
| Cc1nc2nc(Sc3ccccc3)cnc2cc1NC(=O)Nc1ccc(F)c([N+](=O)[O-])c1 [Compound 20B] | 84 % CTL | 89 % CTL |  |

— patent US11117894B2, “Pyridopyrazine compounds and uses thereof” (CITY OF HOPE, priority 2017, dated 2021)
